Test system: FLK-1 receptor
Test: FLK-1 Assay (cellular/catalytic ELISA, VEGF-stimulated phosphotyrosine)
Format: cell-based
Set-up: concentration or dose not given beside the values
Details: protocol P.110
Procedure, shortened: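 NIH3T3 C7#3 cells engineered to express Flk-1 were serum-starved overnight (0.1% FBS), then exposed to compound for 2 h at 37 °C (final dilution 1:200, 0.5% DMSO) before VEGF stimulation. Lysates captured on anti-FLK-1 antiserum plates; phosphotyrosine detected by UB40 antibody/POD-ABTS ELISA versus untreated controls.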

SMILES	Flk Kinase % Inhibition (P.110) [%]
O=C1Nc2ccc(S(=O)(=O)N3CCOCC3)cc2C1=Cc1ccc(O)cc1Cl [10739/F06]	13.7
O=C1Nc2ccc(S(=O)(=O)N3CCOCC3)cc2C1=Cc1cc(O)c(O)c(O)c1 [10739/F07]	0.6
COc1ccc(Oc2cccc(C=C3C(=O)Nc4ccc(S(=O)(=O)N5CCOCC5)cc43)c2)cc1 [10739/F08]	7.0
CN(C)CCCOc1ccc(C=C2C(=O)Nc3ccc(S(=O)(=O)N4CCOCC4)cc32)cc1 [10739/F09]	15.6
O=C1Nc2ccc(S(=O)(=O)N3CCOCC3)cc2C1=Cc1ccoc1 [10739/F10]	12.3
O=C1Nc2ccc(S(=O)(=O)N3CCOCC3)cc2C1=Cc1ccc(CO)o1 [10739/F11]	11.9
COc1ccc(C=C2C(=O)Nc3ccc(CCCl)cc32)cc1C [10739/G02]	5.9
O=C1Nc2ccc(CCCl)cc2C1=Cc1cccc(OCc2ccccc2)c1 [10739/G03]	1.9
O=C1Nc2ccc(CCCl)cc2C1=Cc1ccc(OCc2ccccc2)cc1 [10739/G04]	4.5
O=C1Nc2ccc(CCCl)cc2C1=CC1COc2ccccc2O1 (centres unmarked) [10739/G05]	10.7
O=C1Nc2ccc(CCCl)cc2C1=Cc1ccc(O)cc1Cl [10739/G06]	14.0
O=C1Nc2ccc(CCCl)cc2C1=Cc1cc(O)c(O)c(O)c1 [10739/G07]	−4.9
COc1ccc(Oc2cccc(C=C3C(=O)Nc4ccc(CCCl)cc43)c2)cc1 [10739/G08]	15.0
CN(C)CCCOc1ccc(C=C2C(=O)Nc3ccc(CCCl)cc32)cc1 [10739/G09]	3.1
O=C1Nc2ccc(CCCl)cc2C1=Cc1ccoc1 [10739/G10]	−2.0
O=C1Nc2ccc(CCCl)cc2C1=Cc1ccc(CO)o1 [10739/G11]	9.8
COc1ccc(C=C2C(=O)Nc3c(Br)cc(Br)c(C)c32)cc1C [10739/H02]	2.2
Cc1c(Br)cc(Br)c2c1C(=Cc1cccc(OCc3ccccc3)c1)C(=O)N2 [10739/H03]	1.6
Cc1c(Br)cc(Br)c2c1C(=Cc1ccc(OCc3ccccc3)cc1)C(=O)N2 [10739/H04]	9.9
Cc1c(Br)cc(Br)c2c1C(=Cc1ccc(O)cc1Cl)C(=O)N2 [10739/H06]	35.6
Cc1c(Br)cc(Br)c2c1C(=Cc1cc(O)c(O)c(O)c1)C(=O)N2 [10739/H07]	−1.4
COc1ccc(Oc2cccc(C=C3C(=O)Nc4c(Br)cc(Br)c(C)c43)c2)cc1 [10739/H08]	4.0
Cc1c(Br)cc(Br)c2c1C(=Cc1ccoc1)C(=O)N2 [10739/H10]	15.0
